According to patent publication US20050118202A1, “Solid compositions containing compounds unstable to oxygen and method for stabilization thereof” (priority 2001, published 2005):

Legend:
Format in all cases: physicochemical
[1] = Experimental Example 1: residual ratio of bulk powders after storage; conditions: bulk powder left at 40° C. and 75% RH in atmospheric air for 1 month
Description: After the bulk powder of the compound A and sodium ascorbate were left at 40° C. and 75% RH in atmospheric air for 1 month, their residual ratios were measured. As a result, the residual ratio of the compound A was 89.7% (W/W) and the residual ratio of sodium ascorbate was 99.0% (W/W).
The quantitative determination of the compound A was carried out by a HPLC method under the following conditions: • solvent: acetonitrile, • measurement wavelength: 287 nm, • column: CHIRALCEL OJ-R 4.6×150 mm (manufactured by Daicel Chemical Industries, Ltd. CPI Co.), • mobile phase: a mixed (16:9) solution of acetonitrile/10 mM ammonium acetate aqueous solution, • oven temperature: around 25° C.
The quantitative determination of sodium ascorbate was carried out by iodine titration method (solvent: metaphosphoric acid solution (1→50), indicator: starch reagent solution).

[2] = Experimental Example 2: stability of tablet vs bulk powder, 60° C. 2 weeks, HPLC
Description: The tablet obtained in Example 1 was put in a capped glass bottle and sealed. After storage at 60° C. for 2 weeks, the contents of the compound A and the related substances in the tablet were measured. Similarly, the bulk powder used for production of the tablet in Example 1 was stored under the same conditions and then the contents of the compound A and the related substances were measured. A comparison of stabilities between the formulated tablet and the bulk powder was made.
(§1) Measurement of the contents of the compound A and the related substances was carried out by a HPLC method under the following conditions: • solvent: water/acetonitrile mixed solution (4:6), • measurement wavelength: 287 nm, • column: XTerra MS C18 3.5 μm 4.6 mm×150 mm (manufactured by Waters Co., Ltd.), • mobile phase: a gradient of 10 mM ammonium acetate solution/acetonitrile mixed solution (4:3) and acetonitril/10 mM ammonium acetate solution mixed solution (9:1), and • oven temperature: around 40° C.

[3] = Experimental Example 3: stability of tablets with/without sodium ascorbate, 40° C. 1 month, HPLC
Description: as §1
The equilibrium moisture content (ERH) of each tablet was measured by the following method. The results were 3.0% and 3.4%, respectively.
These tablets were put in a capped glass bottle and sealed. After storage at 40° C. for 1 month, the contents of the compound A and the related substances were measured. The content of the compound A was measured in the same manner as the measurement method in Experimental Example 2, except that a water/acetonitrile mixed solution (4:6) was used as a solvent. The measurement of the related substances was carried out in the same manner as […].

[4] = initial: immediately after production
[5] = sealed capped glass bottle, after 2-week storage at 60° C.
[6] = content in the bulk used for Examples 5 and 7

Row | residual ratio [1] | Related substance C [2, 4] | Related substance D [2, 4] | Related substance E [2, 4] | Related substance F [2, 4] | related substance A [2, 4] | residual ratio [2, 4] | Related substance C [2, 5] | Related substance D [2, 5] | Related substance E [2, 5] | Related substance F [2, 5] | related substance A [2, 5] | related substance B [2, 5] | residual ratio [2, 5] | Related substance C [3, 6] | Related substance D [3, 6] | Related substance E [3, 6] | related substance A [3, 6] | related substance B [3, 6] | related substance A ([3]; content in the bulk used, last item of the list A to F (second mention of A)) | Compound
1 | 99.0 % (W/W) |  |  |  |  |  |  |  |  |  |  |  |  |  |  |  |  |  |  |  | O=C1O[C@H]([C@@H](O)CO)C([O-])=C1O.[Na+] [sodium ascorbate]
2 | 89.7 % (W/W) | 0.24% | 0.32% | 0.13% | 3.01% | 0.46% | 100.0% | 1.13% | 2.12% | 0.78% | 10.41% | 1.74% | 0.59% | 87.9% | 0.40% | 0.43% | 0.08% | 0.31% | 0.08% | 2.69% | COc1cc2c(cc1OC)CN(c1c(C)c(C)c3c(c1C)[C@@H](c1ccc(C)cc1)C(C)(C)O3)C2 [compound A, (R)-(+)-5,6-dimethoxy-2-[2,2,4,6,7-pentamethyl-3-(4-methylphenyl)-2,3-dihydro-1-benzofuran-5-yl]isoindoline]
